Where two headings read alike, the source gives them in different places.

Assay [1] deals with human SKM-1 acute myeloid leukemia cells. In words: SKM-1 antiproliferation cell-based assay (ATPlite). Conditions: Homo sapiens. The method, boiled down:
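Log-phase cells in RPMI 1640/15% FBS were seeded at 34722 cells/mL and exposed for 4 days to nine-concentration DMSO serial dilutions in triplicate. Viability was read as ATP luminescence (ATPlite 1step), and IC50 values came from variable-slope non-linear regression.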
(In general: Cellular ATP, detected with luciferase, serves as a proxy for viable cell number.)

The target in assay [2] is T1, human BRD4 bromodomain II (Homo sapiens, UniProt O60885).
T1 construct: human BRD4 bromodomain II [based on Genbank NM_058243, residues 349-460]; host or cells: E. coli
Nature of the assay: Bromodomain binding assay (AlphaScreen), BRD4 BDII. In outline: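 E. coli-expressed N-terminal His6-tagged human BRD4 BDII (residues 349-460) or BDI (residues 44-170) was preincubated 30 min at room temperature with compound (10-point, 3-fold) in pH 7.5 HEPES buffer, 1% DMSO. Displacement of biotinylated tetra-acetylated H4 1-21 peptide was read by AlphaScreen, and IC50 came from curve fitting.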
Background: Bead proximity is the source of the signal in Alpha formats.

Where [3] appears, read: SKM-1, SKM-1 antiproliferation assay.
The mark [4] stands for this setting: BRD4 BDII AlphaScreen assay, read-out: BRD4 BD2 IC50.
The mark [5] stands for this setting: SKM-1, 96 h, SKM-1 antiproliferation assay, 4 days, Table C2.
Setting [6] is: AlphaScreen assay, Table C2, read-out: BRD4 BDII IC50.

For orientation: GI50 means the concentration that inhibits growth by half. A high value points to lower sensitivity of the cells. The IC50 is the point on the concentration scale where inhibition reaches its midpoint. As for `CC(=O)Nc1cccc(-c2cc(F)cc(-c3cccc(N4CCC(C)(O)C4)c3)c2O)c1Cl` (stereo not drawn) [Example 893], the GI50 in assay [1] (setting [3]) lay in the range of 300 to 3000 nM. Further, the IC50 in assay [2] (setting [4]) was above 100 nM.

Regarding `CC[C@]1(O)CCN(c2cc(-c3cc(F)cc(-c4ccc(-n5ccn(C)c5=O)c(Cl)c4)c3O)ccn2)C1` [Example 819, (S)-1-(3-chloro-3′-(2-(3-ethyl-3-hydroxypyrrolidin-1-yl)pyridin-4-yl)-5′-fluoro-2′-hydroxy-[1,1′-biphenyl]-4-yl)-3-methyl-1H-imidazol-2(3H)-one], the GI50 in assay [1] (setting [5]) was 30 to 300 nM. For the same molecule, the IC50 in assay [2] (setting [6]) lay in the range of 1 to 10 nM.

The molecule `O=C1CCCN1c1ccc(-c2cc(F)cc(-c3ccnc(N4CC5(CNC5)C4)c3)c2O)cc1Cl` [Example 324, 1-(3′-(2-(2,6-diazaspiro[3.3]heptan-2-yl)pyridin-4-yl)-3-chloro-5′-fluoro-2′-hydroxy-[1,1′-biphenyl]-4-yl)pyrrolidin-2-one] yielded a GI50 in assay [1] (setting [5]) of 300 to 3000 nM. In addition, in assay [2] (setting [6]), the IC50 fell in the range of 10 to 100 nM.

`Cn1nnn(-c2ccc(-c3cc(F)cc(-c4ccnc(N5CCNCC5)c4)c3O)cc2Cl)c1=O` [Example 520, 1-(3-chloro-5′-fluoro-2′-hydroxy-3′-(2-(piperazin-1-yl)pyridin-4-yl)-[1,1′-biphenyl]-4-yl)-^4-methyl-1H-tetrazol-5(4H)-one] showed a GI50 in assay [1] (setting [5]) of 300 to 3000 nM. The IC50 in assay [2] (setting [6]) was in the range of 10 to 100 nM.

For `CC(C)CN1CCN(c2cc(-c3cc(F)cc(-c4ccc(-n5ccn(C)c5=O)c(Cl)c4)c3O)ccn2)CC1` [Example 682, 1-(3-chloro-5′-fluoro-2′-hydroxy-3′-(2-(4-isobutylpiperazin-1-yl)pyridin-4-yl)-[1,1′-biphenyl]-4-yl)-3-methyl-1H-imidazol-2(3H)-one], the GI50 in assay [1] (setting [5]) is 0.3 to 30 nM. In addition, in assay [2] (setting [6]), the IC50 fell in the range of 0.01 to 1 nM.

The molecule `CC(=O)Nc1ccc(-c2cccc(-c3cc(OCCN)nc(N4CCNCC4)c3)c2O)cc1F` [Example 302, N-(3′-(2-(2-aminoethoxy)-6-(piperazin-l-yl)pyridin-4-yl)-3-fluoro-2′-hydroxy-[1,1′-biphenyl]-4-yl)acetamide] returned a GI50 in assay [1] (setting [5]) of 300 to 3000 nM. In addition, the IC50 in assay [2] (setting [6]) was 10 to 100 nM.

Turning to `COc1ncc(-c2cc(F)cc(-c3ccc(-n4ccn(C)c4=O)c(Cl)c3)c2O)cc1N1CC[C@@](C)(O)C1` [Example 812, (R)-1-(3-chloro-5′-fluoro-2′-hydroxy-3′-(5-(3-hydroxy-3-methylpyrrolidin-1-yl)-6-methoxypyridin-3-yl)-[1,1′-biphenyl]-4-yl)-3-methyl-1H-imidazol-2(3H)-one], the GI50 in assay [1] (setting [5]) was in the range of 0.3 to 30 nM. The IC50 in assay [2] (setting [6]) was 0.01 to 1 nM.

As to `CC(C)COc1cc(-c2cc(F)cc(-c3cccc(N4CCN(C(C)(C)C)CC4)c3)c2O)cc(Cl)c1-n1ccn(C)c1=O` [Example 924, 1-(3″-(4-(tert-Butyl)piperazin-1-yl)-3-chloro-5′-fluoro-2′-hydroxy-5-isobutoxy-[1,1′:3′,1″-terphenyl]-4-yl)-3-methyl-1H-imidazol-2(3H)-one], the GI50 in assay [1] (setting [3]) was in the range of 30 to 300 nM. Moreover, in assay [2] (setting [4]), the IC50 lay in the range of 10 to 100 nM.

Consider `Cc1cc(-c2ccc(-n3ccn(C)c3=O)c(F)c2)c(O)c(-c2cnc(C)c(N3CCN(C(C)(C)C)CC3)c2)n1` [Example 1001, 1-(4-(5′-(4-(tert-butyl)piperazin-1-yl)-3-hydroxy-6,6′-dimethyl-[2,3′-bipyridin]-4-yl)-2-fluorophenyl)-3-methyl-1H-imidazol-2(3H)-one], for which the GI50 in assay [1] (setting [3]) lay within 0.3 to 30 nM. The IC50 in assay [2] (setting [4]) is 1 to 10 nM.

As to `Cc1cc(-c2ccc(-n3ccn(C)c3=O)c(Cl)c2)c(O)c(-c2cnc(N(C)C)c(N3CCN(C(C)(C)C)CC3)c2)n1` [Example 964, 1-(4-(5′-(4-(tert-butyl)piperazin-1-yl)-6′-(dimethylamino)-3-hydroxy-6-methyl-[2,3′-bipyridin]-4-yl)-2-chlorophenyl)-3-methyl-1H-imidazol-2(3H)-one], in assay [1] (setting [3]), the GI50 lay within 0.3 to 30 nM. The IC50 in assay [2] (setting [4]) was 0.01 to 1 nM.

In assay [1] (setting [5]), `Cn1ccn(-c2ccc(-c3cc(F)cc(-c4cncc(N5CCNC(C)(C)C5)c4)c3O)cc2Cl)c1=O` [Example 561, 1-(3-chloro-3′-(5-(3,3-dimethylpiperazin-1-yl)pyridin-3-yl)-5′-fluoro-2′-hydroxy-[1,1′-biphenyl]-4-yl)-3-methyl-1H-imidazol-2(3H)-one] came in with a GI50 of 0.3 to 30 nM. In addition, the IC50 in assay [2] (setting [6]) lay within 0.01 to 1 nM.

In turn, `CN1CCN(c2ccc(-c3cccc(-c4cc(C5CC5)nc(N5CCNCC5)c4)c3O)cc2Cl)C1=O` [Example 368, 1-(3-chloro-3′-(2-cyclopropyl-6-(piperazin-1-yl)pyridin-4-yl)-2′-hydroxy-[1,1′-biphenyl]-4-yl)-3-methylimidazolidin-2-one] came in with a GI50 in assay [1] (setting [5]) of 30 to 300 nM. Besides, the IC50 in assay [2] (setting [6]) lay in the range of 1 to 10 nM.

Consider `CN1CCN(c2ccc(-c3cc(F)cc(-c4ccnc(N5CC6(CNC6)C5)c4)c3O)cc2Cl)C1=O` [Example 352, 1-(3′-(2-(2,6-diazaspiro[3.3]heptan-2-yl)pyridin-4-yl)-3-chloro-5′-fluoro-2′-hydroxy-[1,1′-biphenyl]-4-yl)-3-methylimidazolidin-2-one], for which the GI50 in assay [1] (setting [5]) was in the range of 300 to 3000 nM. Besides, in assay [2] (setting [6]), the IC50 lay in the range of 10 to 100 nM.

In assay [1] (setting [3]), `Cc1cc(-c2ccc(-n3ccn(C)c3=O)c(C)c2)c(O)c(-c2cccc(N3CCN(C(C)(C)C)CC3)c2)n1` [Example 1012, 1-(4-(2-(3-(4-(tert-butyl)piperazin-1-yl)phenyl)-3-hydroxy-6-methylpyridin-4-yl)-2-methylphenyl)-3-methyl-1H-imidazol-2(3H)-one] displayed a GI50 of 0.3 to 30 nM. The IC50 in assay [2] (setting [4]) was in the range of 1 to 10 nM.

Regarding `O=C1CCCN1c1ccc(-c2cc(F)cc(-c3ccnc(N4CCNCC4)c3)c2O)cc1Cl` [Example 217, 1-(3-chloro-5′-fluoro-2′-hydroxy-3′-(2-(piperazin-1-yl)pyridin-4-yl)-[1,1′-biphenyl]-4-yl)pyrrolidin-2-one], the 50% growth inhibitory concentration (GI50) in assay [1] (setting [5]) fell in the range of 300 to 3000 nM. For the same molecule, in assay [2] (setting [6]), the IC50 was 1 to 10 nM.

For `CC(=O)Nc1ccc(-c2cccc(-c3cc(Cl)nc(N4CCNCC4)c3)c2O)cc1F` [Example 226, N-(3′-(2-chloro-6-(piperazin-1-yl)pyridin-4-yl)-3-fluoro-2′-hydroxy-[1,1′-biphenyl]-4-yl)acetamide], the GI50 in assay [1] (setting [5]) was 300 to 3000 nM. Besides, in assay [2] (setting [6]), the IC50 was 1 to 10 nM.

For `Cn1ccn(-c2ccc(-c3cc(F)cc(-c4ccnc(N5CCN[C@H](CC#N)C5)c4)c3O)cc2Cl)c1=O` [Example 698, (R)-2-(4-(4-(3′-chloro-5-fluoro-2-hydroxy-4′-(3-methyl-2-oxo-2,3-dihydro-1H-imidazol-1-yl)-[1,1′-biphenyl]-3-yl)pyridin-2-yl)piperazin-2-yl)acetonitrile], the concentration for 50% growth inhibition (GI50) in assay [1] (setting [5]) lay within 0.3 to 30 nM. The IC50 in assay [2] (setting [6]) is 0.01 to 1 nM.

The molecule `Cn1ccn(-c2ccc(-c3cc(F)cc(-c4ccnc(N5CCC(C)(N)C5)c4)c3O)cc2Cl)c1=O` (stereo not drawn) [Example 686, 1-(3′-(2-(3-amino-3-methylpyrrolidin-1-yl)pyridin-4-yl)-3-chloro-5′-fluoro-2′-hydroxy-[1,1′-biphenyl]-4-yl)-3-methyl-1H-imidazol-2(3H)-one] had a GI50 in assay [1] (setting [5]) of 0.3 to 30 nM. Further, in assay [2] (setting [6]), the half-maximal inhibitory concentration (IC50) is 0.01 to 1 nM.

`Cn1ccn(-c2ccc(-c3cc(F)cc(-c4ccnc(N5CC6CCC6(N)C5)c4)c3O)cc2Cl)c1=O` (stereo not drawn) [Example 806, 1-(3′-(2-(1-amino-3-azabicyclo[3.2.0]heptan-3-yl)pyridin-4-yl)-3-chloro-5′-fluoro-2′-hydroxy-[1,1′-biphenyl]-4-yl)-3-methyl-1H-imidazol-2(3H)-one] returned a GI50 in assay [1] (setting [5]) of 0.3 to 30 nM. In assay [2] (setting [6]), the IC50 is 1 to 10 nM.

Regarding `CN1CCN(c2ccc(-c3cc(F)cc(-c4cccc(N5CCN(C(C)(C)C)CC5)c4)c3O)cc2Cl)C1=O` [Example 918, 1-(3″-(4-(tert-butyl)piperazin-1-yl)-3-chloro-5′-fluoro-2′-hydroxy-[1,1′:3′,1″-terphenyl]-4-yl)-3-methylimidazolidin-2-one], the GI50 in assay [1] (setting [3]) was 0.3 to 30 nM. In addition, in assay [2] (setting [4]), the IC50 fell in the range of 1 to 10 nM.

For the molecule `Cn1ccn(-c2ccc(-c3cc(F)cc(-c4ccnc(N5CC(C)(O)C6(CC6)C5)c4)c3O)cc2Cl)c1=O` (stereo not drawn) [Example 779, 1-(3-chloro-5′-fluoro-2′-hydroxy-3′-(2-(7-hydroxy-7-methyl-5-azaspiro[2.4]heptan-5-yl)pyridin-4-yl)-[1,1′-biphenyl]-4-yl)-3-methyl-1H-imidazol-2(3H)-one], the GI50 in assay [1] (setting [5]) fell in the range of 0.3 to 30 nM. In addition, the IC50 in assay [2] (setting [6]) is 1 to 10 nM.

In turn, `CC(C)N1CCN(c2cc(-c3cc(F)cc(-c4ccc(-n5ccn(C)c5=O)c(Cl)c4)c3O)cnc2Cl)CC1` [Example 787, 1-(3-chloro-3′-(6-chloro-5-(4-isopropylpiperazin-1-yl)pyridin-3-yl)-5′-fluoro-2′-hydroxy-[1,1′-biphenyl]-4-yl)-3-methyl-1H-imidazol-2(3H)-one] returned a GI50 in assay [1] (setting [5]) of 0.3 to 30 nM. Moreover, in assay [2] (setting [6]), the IC50 fell in the range of 0.01 to 1 nM.

Turning to `CN(C)[C@H]1CCCN(c2cc(-c3cc(F)cc(-c4ccc(-n5ccn(C)c5=O)c(Cl)c4)c3O)ccn2)C1` [Example 457, (S)-1-(3-chloro-3′-(2-(3-(dimethylamino)piperidin-1-yl)pyridin-4-yl)-5′-fluoro-2′-hydroxy-[1,1′-biphenyl]-4-yl)-3-methyl-1H-imidazol-2(3H)-one], the GI50 in assay [1] (setting [5]) was in the range of 0.3 to 30 nM. Besides, the IC50 in assay [2] (setting [6]) is 1 to 10 nM.

In assay [1] (setting [3]), `CNC(=O)Nc1ccc(-c2cc(F)cc(-c3cccc(N4CCN(C(C)(C)C)CC4)c3)c2O)cc1Cl` [Example 921, 1-(3″-(4-(tert-Butyl)piperazin-1-yl)-3-chloro-5′-fluoro-2′-hydroxy-[1,1′:3′,1″-terphenyl]-4-yl)-3-methylurea] registered a GI50 of 300 to 3000 nM. Further, the IC50 in assay [2] (setting [4]) lay within 10 to 100 nM.

The record behind these values is patent US20250179059A1 (The Regents of the University of California, priority 2021, published 2025).
